Test results from patent publication US20250276008A1, “USE OF LITHIUM-CONTAINING COMPOUNDS IN TREATMENT OF TUMORS” (Institute of Basic Medical Sciences Chinese Academy of …, priority 2023, published 2025).

Columns and labels:
CD8^+ T cells [1] = experiment: Cytosolic Ca2+ / lysosomal Ca2+ release in CD8+ T cells; type: cell-based, mouse; details: for increase in cytosolic Ca^2+ concentrations in CD8^+ T cells induced by LC: blocking calcium release from endoplasmic reticulum or mitochondria; for Ca^2+ release in lactic acid-treated CD8^+ T cells: increasing lysosomal pH value
Excerpt: Next, we investigated the molecular mechanism by which LC activated TFEB in CD8^+ T cells. It has been reported (Nat Cell Biol. 2015 March;17(3):288-99) that in addition to being able to degrade exogenous or endogenous biomacromolecules, lysosomes, like endoplasmic reticulum and mitochondria, are also storage sites for Ca^2+ and can initiate the transduction of calcium-related downstream signals.
(§1) In order to better track the flow of H^+, ^2D (deuterium)-acetic acid (DAC) or ^2D-sulfuric acid (D2SO4) was added to the culture medium of CD8^+ T cells. […] The K-loop of V-ATPase is located in the hydrophobic lipid bilayer and is essential for the pumping of cytosolic H^+ into the lysosomal lumen. Li^+ has been reported to bind to the K-loop of V-ATPase in Enterococcus hirde and induce deprotonation of the Glul39 residue (J. Am. Chem. Soc. 2011.133. 2860-2863).

MCT1 = experiment: Localization of MCT1 to mitochondria (Western blot of isolated T cell mitochondria); type: cell-based, mouse; details: for expression / localization of MCT1 in mitochondria: Western blot of isolated T cell mitochondria
Excerpt: The inventor further explored the molecular mechanism by which LC led to the shunting of lactic acid to mitochondria. Entry of lactic acid into mitochondria requires the localization of MCT1 to the inner mitochondrial membrane IMM (Redox Biol. 2020 August;35:101454). […] MCT1 is generally recognized as a secreted protein with an endoplasmic reticulum-targeting sequence that enters the endoplasmic reticulum and localizes to the plasma membrane. We hypothesized that LC could induce MCT1 variants with mitochondrial targeting sequences (MTSs). However, no MCT1 variant was found in LC-treated T cells by sequencing analysis, and only one transcript of MCT1 was found after alignment analysis on NCBI. A MTS was found at the N-terminus of MCT-1protein by protein sequence analysis, which was present downstream of the endoplasmic reticulum targeting sequence, forming a double-peak chimeric sequence. This double-peak sequence may direct MCT-1 to target the endoplasmic reticulum or mitochondria, and may be regulated by serine/threonine phosphorylation of PKA or PKC (Avadhani, N. G. 2011. FEBS J 278, 4218-4229).

lysosomal V-ATPase = experiment: Lysosomal pH, Atp6v0c, H+ (deuterium) flow and Li+ accumulation in CD8+ T cells; type: cell-based, mouse
Method: as §1

CD8^+ T cells [2] = experiment: Entry and subcellular distribution of lactate and hydrogen ions in CD8+ T cells (lysosensor, LC-MS/MS); type: cell-based, mouse
Method: CD8^+ T cells were treated with exogenous hydrochloric acid (HCl) or sodium lactate (NaLa) as controls, and the entry of lactate and hydrogen ions into the cells was detected.
When exogenous lactic acid enters the cell, excess hydrogen ions are further transported to acidic organelles, such as lysosomes, in order to maintain the stability of the cytoplasmic pH values.

CD8^+ T cells [3] = experiment: Lactyl-CoA (LC-MS/MS) and histone lactylation (Western blot, anti-pan-Kla) in CD8+ T cells; type: cell-based, mouse; details: after treating CD8+ T cells with exogenous lactic acid
Excerpt: We further investigated the effect of lactic acid distributed in the nucleus on the function of CD8^+ T cells. In 2019, Zhao […] team discovered a new type of histone epigenetic modification, lactylation modification (Kla), which can regulate the phenotype and function of macrophages (Nature. 2019 October: 574 (7779): 575-580). On this basis, we hypothesized that lactic acid entering the nucleus would lead to lactylation modification of histones, thereby regulating the function of CD8^+ T cells.

CD8^+ T cells [4] = experiment: Exogenous lactic acid on CD3/CD28-activated CD8+ T cells (flow cytometry, qPCR, ELISA, CTV); type: cell-based, C57BL/6J mouse; details: exogenous lactic acid at different concentrations, dose-dependent
Excerpt: In order to further explore the effect of lactic acid on CD8^+ T cells, we used C57BL/6J mouse spleen-derived CD8^+ T cells to be activated by CD3/CD28 magnetic beads and stimulated by exogenous lactic acid at different concentrations.

V-ATPase = experiment: V0C expression, V-ATPase activity and lysosomal pH in lactic acid-treated CD8+ T cells; type: cell-based, mouse
Method: In order to further elucidate the mechanism by which histone lactylation modification regulates T cell function, the downstream target genes regulated by histone lactylation modification were explored by using ChIP-Seq experiments, and the enrichment scores of genes corresponding to histone lactylation sites were calculated. […] ATP6V0C gene encodes the V0 subunit C protein in V-ATPase that plays a key role in pumping H^+, which is responsible for pumping cytosolic H^+ into the lysosomal lumen and thus maintaining the low pH value of lysosomes. […] Therefore, exogenous lactic acid results in lactylation of histones and thus up-regulating ATP6V0C expression and activity, thereby shunting cytosolic H^+ into lysosomes in response to cytosolic acid stress, but lysosomal acidification may inhibit the activity of CD8^+ T cells.

In the case of `O=C1CSC(c2ccccc2Cl)c2cc(Cl)ccc2N1` (stereo not drawn) [CGP37157], the “increase in cytosolic Ca^2+ concentrations in CD8^+ T cells induced by LC” value (CD8^+ T cells [1]) is reported as “did not affect”.

In the case of `CCCCCCCCCCCCCC(=O)O[C@@H]1[C@@H](C)[C@@]2(O)[C@@H](C=C(CO)C[C@]3(O)C(=O)C(C)=C[C@@H]23)[C@@H]2C(C)(C)[C@]12OC(C)=O` [PMA], the “expression / localization of MCT1 in mitochondria” value (MCT1) is reported as “significantly increased”.

For `CN1CCN(c2nc(C3=C(c4c[nH]c5ccccc45)C(=O)NC3=O)c3ccccc3n2)CC1` [Sotrastaurin], the “localization of MCT1 to mitochondria induced by LC” value (MCT1; kinase inhibitors added, results not shown) was “almost completely blocked”.

`CO/C1=C\C(C)=C\[C@@H](C)[C@@H](O)[C@@H](C)C/C(C)=C/C=C/[C@H](OC)[C@@H]([C@@H](C)[C@@H](O)[C@H](C)[C@@]2(O)C[C@@H](O)[C@H](C)[C@@H](C(C)C)O2)OC1=O` [bafilomycin A1] was tested, and the “Ca^2+ release” value (CD8^+ T cells [1]; LC-treated CD8+ T cells with bafilomycin A1) was “reduced”, the “Ca^2+ release in lactic acid-treated CD8^+ T cells” value (CD8^+ T cells [1]) was “promote” and the “entry of Li^+ into lysosomes” value (lysosomal V-ATPase; LC-treated CD8+ T cells) was “blocked”.

With `CCN(CC)CCCC(C)Nc1ccnc2cc(Cl)ccc12` (stereo not drawn) [chloroquine] the “Ca^2+ release in lactic acid-treated CD8^+ T cells” value (CD8^+ T cells [1]) was “promote”.

In the case of `CC(O)C(=O)O` (stereo not drawn) [lactic acid], the “lysosome acidification (lysosensor staining)” value (CD8^+ T cells [2]) is reported as “rapidly acidify lysosomes”, the “entry of lactate and hydrogen ions into the cells” value (CD8^+ T cells [2]; HCl or sodium lactate as controls) is reported as “simultaneously transported into the cells” and the “content of lactyl-CoA (LC-MS/MS)” value (CD8^+ T cells [3]) is reported as “significantly increased”. The “level of histone lactylation (Western blotting, anti-pan-Kla antibody)” value (CD8^+ T cells [3]) was “significantly increased”, the “activation of CD8^+ T cells (CD25 expression; gene and protein expression of IL-2, IFN-γ, TNF-α)” value (CD8^+ T cells [4]; CD3/CD28 magnetic beads) was “significantly inhibited” and the “apoptosis of CD8^+ T cells” value (CD8^+ T cells [4]) was “significantly promoted”. For the same compound, the “proliferation of CD8^+ T cells (CTV proliferation assay)” value (CD8^+ T cells [4]) was “significantly inhibited”, the “expression / localization of MCT1 in mitochondria” value (MCT1) was “significantly reduced” and the “activity of V-ATPase” value (V-ATPase; CD8+ T cells) was “significantly up-regulated”. The “protein expression of V0C” value (V-ATPase; CD8+ T cells) was “significantly up-regulated”, the “lysosomal pH value” (V-ATPase; exogenous lactic acid, decreasing from 5.4) was 4.4 and the “expression of lysosome-related gene Atp6v0c” value (lysosomal V-ATPase) was “significantly up-regulated”. The “lactylation of the Atp6v0c gene (ChIP-seq)” value (lysosomal V-ATPase) was “high level of lactylation”.

Ryanodine was tested, and the “increase in cytosolic Ca^2+ concentrations in CD8^+ T cells induced by LC” value (CD8^+ T cells [1]) was “did not affect”.
